# Experimental data reported in US20230382925A1, “MODULATORS OF CYSTIC FIBROSIS TRANSMEMBRANE CONDUCTANCE REGULATOR” (VERTEX PHARMACEUTICALS INCORPORATED, priority 2020, published 2023).
# Where two headings read alike, the source gives them in different places.
# Biological target: CFTR (Homo sapiens, UniProt P13569)
# Assay: Membrane Potential Dye, Enteroid Assay B
# Type: cell-based
# Description: Base medium (ADF+++) consisted of Advanced […], 2 mM Glutamax, 10 mM HEPES, 1 μg/mL penicillin/streptomycin.
# Intestinal enteroid maintenance medium (IEMMN) consisted of ADF+++, 1× B27 supplement, 1× N2 supplement, 1.25 mM N-acetyl cysteine, 10 mM Nicotinamide, 50 ng/mL hEGF, 10 nM Gastrin, 1 μg/mL hR-spondin-1, 100 ng/mL hNoggin, TGF-b type 1 inhibitor A-83-01, 100 μg/mL Primocin, 10 μM P38 MAPK inhibitor SB202190.
# Bath 1 Buffer consisted of 1 mM MgCl2, 160 mM NaCl, 4.5 mM KCl, 10 mM HEPES, 10 mM Glucose, 2 mM CaCl2).
# Chloride Free Buffer consisted of 1 mM Magnesium Gluconate, 2 mM Calcium Gluconate, 4.5 mM Potassium Gluconate, 160 mM Sodium Gluconate, 10 mM HEPES, 10 mM Glucose.
# Bath 1 Dye Solution consisted of Bath 1 Buffer, 0.04% Pluronic F127, 20 μM Methyl Oxonol, 30 μM CaCCinh-A01, 30 μM Chicago Sky Blue.
# Chloride Free Dye Solution consisted of Chloride Free Buffer, 0.04% Pluronic F127, 20 μM Methyl Oxonol, 30 μM CaCCinh-A01, 30 μM Chicago Sky Blue.
# Chloride Free Dye Stimulation Solution consisted of Chloride Free Dye Solution, 10 μM forskolin, 100 μM IBMX, and 300 nM Compound III.
# Human intestinal epithelial enteroid cells were obtained from the Hubrecht Institute for Developmental Biology and Stem Cell Research, Utrecht, The Netherlands and expanded in T-Flasks as previously described (Dekkers J F, Wiegerinck C L, de Jonge H R, Bronsveld I, Janssens H M, de Winter-de Groot K M, Brandsma A M, de Jong N W M, Bijvelds M J C, Scholte B J, Nieuwenhuis E E S, van den Brink S, Clevers H, van der Ent C K, Middendorp S and M Beekman J M. A functional CFTR assay using primary cystic fibrosis intestinal organoids. Nat Med. 2013 July; 19(7):939-45.).
# 3. Enteroid Cell Harvesting and Seeding
# Cells were recovered in cell recovery solution, collected by centrifugation at 650 rpm for 5 min at 4° C., resuspended in TrypLE and incubated for 5 min at 37° C. Cells were then collected by centrifugation at 650 rpm for 5 min at 4° C. and resuspended in IEMM containing 10 μM ROCK inhibitor (RI). The cell suspension was passed through a 40 μm cell strainer and resuspended at 1×10^6 cells/mL in IEMM containing 10 μM RI. Cells were seeded at 5000 cells/well into multi-well plates and incubated for overnight at 37° C., 95% humidity and 5% CO2 prior to assay.
# 5. Membrane Potential Dye, Enteroid Assay B
# Enteroid cells were incubated with test compound in IEMM for 18-24 hours at 37° C., 95% humidity and 5% CO2. […] Briefly, cells were washed 5 times in Bath 1 Buffer. Bath 1 Dye Solution was added and the cells were incubated for 25 min at room temperature. Following dye incubation, cells were washed 3 times in Chloride Free Dye Solution. Chloride transport was initiated by addition of Chloride Free Dye Stimulation Solution and the fluorescence signal was read for 15 min. […] Chloride transport was then expressed as a percentage of the chloride transport following treatment with 1 μM (14S)-8-[3-(2-{Dispiro[2.0.2.1]heptan-7-yl}ethoxy)-1H-pyrazol-1-yl]-12,12-dimethyl-2λ^6-thia-3,9,11,18,23-pentaazatetracyclo[17.3.1.111,14.05,10]tetracosa-1(22),5,7,9,19(23),20-hexaene-2,2,4-trione, 3 μM (R)-1-(2,2-difluorobenzo[d][1,3]dioxol-5-yl)-N-(1-(2,3-dihydroxypropyl)-6-fluoro-2-(1-hydroxy-2-methylpropan-2-yl)-1H-indol-5-yl)cyclopropanecarboxamide and 300 nM acute N-[2,4-bis(1,1-dimethylethyl)-5-hydroxyphenyl]-1,4-dihydro-4-oxoquinoline-3-carboxamide triple combination control (% Activity).
# [1] = Table 10, read-out: Ent. B EC50
# Chain of CFTR (P13569 with tags, fused parts or gaps DEL508-508): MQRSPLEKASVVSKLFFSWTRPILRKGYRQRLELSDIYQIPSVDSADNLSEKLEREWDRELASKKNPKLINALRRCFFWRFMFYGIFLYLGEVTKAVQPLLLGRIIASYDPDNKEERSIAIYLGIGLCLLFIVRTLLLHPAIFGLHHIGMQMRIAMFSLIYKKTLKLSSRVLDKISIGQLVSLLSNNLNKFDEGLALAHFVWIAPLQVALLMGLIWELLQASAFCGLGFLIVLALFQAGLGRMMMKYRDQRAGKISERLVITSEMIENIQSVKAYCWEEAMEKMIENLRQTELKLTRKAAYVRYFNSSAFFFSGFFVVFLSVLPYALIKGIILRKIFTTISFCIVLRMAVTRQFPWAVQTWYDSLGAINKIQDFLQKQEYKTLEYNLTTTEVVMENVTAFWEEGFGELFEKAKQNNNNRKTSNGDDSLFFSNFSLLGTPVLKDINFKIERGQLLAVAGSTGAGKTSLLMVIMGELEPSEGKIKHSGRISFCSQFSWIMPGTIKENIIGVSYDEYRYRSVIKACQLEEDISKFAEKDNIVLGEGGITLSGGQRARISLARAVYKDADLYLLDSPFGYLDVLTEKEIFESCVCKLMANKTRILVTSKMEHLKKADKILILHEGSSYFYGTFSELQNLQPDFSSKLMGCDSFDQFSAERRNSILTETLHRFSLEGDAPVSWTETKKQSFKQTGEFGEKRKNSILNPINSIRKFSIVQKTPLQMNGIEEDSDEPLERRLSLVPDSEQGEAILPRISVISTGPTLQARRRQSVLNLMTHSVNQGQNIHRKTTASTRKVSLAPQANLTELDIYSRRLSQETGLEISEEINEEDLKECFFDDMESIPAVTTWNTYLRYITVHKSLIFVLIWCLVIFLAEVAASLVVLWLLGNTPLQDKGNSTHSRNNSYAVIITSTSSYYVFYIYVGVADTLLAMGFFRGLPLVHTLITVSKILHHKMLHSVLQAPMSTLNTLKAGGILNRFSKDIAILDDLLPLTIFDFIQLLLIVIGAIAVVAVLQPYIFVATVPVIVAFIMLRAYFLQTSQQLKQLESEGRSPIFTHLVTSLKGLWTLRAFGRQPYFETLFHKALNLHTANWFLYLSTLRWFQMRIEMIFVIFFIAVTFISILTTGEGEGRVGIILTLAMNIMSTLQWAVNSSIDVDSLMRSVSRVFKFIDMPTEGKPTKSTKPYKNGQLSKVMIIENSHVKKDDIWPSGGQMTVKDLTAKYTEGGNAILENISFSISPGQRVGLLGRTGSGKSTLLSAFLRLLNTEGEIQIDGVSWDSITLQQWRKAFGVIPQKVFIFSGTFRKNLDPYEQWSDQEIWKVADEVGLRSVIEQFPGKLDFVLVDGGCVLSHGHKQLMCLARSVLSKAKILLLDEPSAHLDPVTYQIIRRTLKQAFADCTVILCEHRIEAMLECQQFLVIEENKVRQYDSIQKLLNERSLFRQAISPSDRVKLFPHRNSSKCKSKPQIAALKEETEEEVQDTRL
Ent. B Max Activity (%) (Table 9),"EC50 (Table 9, read-out: Ent. B EC50)",Ent. B Max Activity (%) (Table 10),EC50 [1],SMILES,other results
+++ (+++ is >60%),< 1000 nM,–,–,Cc1cccc(C)c1-c1cc2nc(n1)NS(=O)(=O)c1cccc(c1)C(=O)N(C1CC(NC(=O)OC(C)C)C1)[C@H](CC(C)(C)C)CO2 (stereo in doubt) [Compound 451],–
–,–,+++ (+++ is >60%),< 1000 nM,"Cc1cccc(C)c1-c1cc2nc(n1)NS(=O)(=O)c1cccc(c1)C(=O)N(C1CC(CO)(C(C)(C)O)C1)[C@H](CC(C)(C)C)CO2 (single isomer, unassigned) [Compound 159]",–
+++ (+++ is >60%),< 1000 nM,–,–,"Cc1cccc(C)c1-c1cc2nc(n1)NS(=O)(=O)c1cccc(c1)C(=O)N(C1CC(NC(=O)OC(C)(C)C)C1)[C@H](CC(C)(C)C(F)(F)F)CO2 (single isomer, unassigned) [Compound 193]",–
–,–,++ (++ is 30-60%),< 1000 nM,"Cc1cccc(C)c1-c1cc2nc(n1)NS(=O)(=O)c1cccc(c1)C(=O)N([C@H]1C[C@@](C)(OC(F)(F)F)C1)[C@H](CC(C)(C)C)CO2 (single isomer, unassigned) [Compound 156]",–
–,–,+++ (+++ is >60%),< 1000 nM,"Cc1cccc(C)c1-c1cc2nc(n1)NS(=O)(=O)c1cccc(c1)C(=O)N(C1CC3(CC(O)C3)C1)[C@H](CC(C)(C)C)CO2 (single isomer, unassigned) [Compound 122]",–
–,–,+++ (+++ is >60%),< 1000 nM,Cc1cccc(C)c1-c1cc2nc(n1)NS(=O)(=O)c1cccc(c1)C(=O)N(C1CC3(C1)CC(O)(CC(C)C)C3)[C@H](CC(C)(C)C)CO2 (stereo in doubt) [Compound 404],–
–,–,++ (++ is 30-60%),< 1000 nM,CCC(=O)N(C)C1CC(N2C(=O)c3cccc(c3)S(=O)(=O)Nc3nc(cc(-c4c(C)cccc4C)n3)OC[C@H]2CC(C)(C)C)C1 (stereo in doubt) [Compound 239],–
–,–,++ (++ is 30-60%),< 1000 nM,Cc1cccc(C)c1-c1cc2nc(n1)NS(=O)(=O)c1cccc(c1)C(=O)N(C1CC(N(C)C)C1)[C@H](CC(C)(C)C)CO2 (stereo partly shown) [Compound 253],–
–,–,+++ (+++ is >60%),< 1000 nM,"Cc1cccc(C)c1-c1cc2nc(n1)NS(=O)(=O)c1cccc(c1)C(=O)N(C1CC3(CC(O)C3)C1)[C@H](CC(C)(C)C)CO2 (single isomer, unassigned) [Compound 121]",–
–,–,++ (++ is 30-60%),< 1000 nM,"Cc1cccc(C)c1-c1cc2nc(n1)NS(=O)(=O)c1cccc(c1)C(=O)N([C@H]1C[C@@H](N3CCOC3=O)C1)[C@H](CC(C)(C)C)CO2 (single isomer, unassigned) [Compound 167]",–
–,–,++ (++ is 30-60%),< 1000 nM,"COC(=O)NC1(C)CC2(CC(N3C(=O)c4cccc(c4)S(=O)(=O)Nc4nc(cc(-c5c(C)cccc5C)n4)OC[C@H]3CC(C)(C)C)C2)C1 (single isomer, unassigned) [Compound 96]",–
+++ (+++ is >60%),< 1000 nM,–,–,Cc1cccc(C)c1-c1cc2nc(n1)NS(=O)(=O)c1cccc(c1)C(=O)N(C1CC3(CC(N)C3)C1)[C@H](CC(C)(C)C)CO2 (stereo partly shown) [Compound 463],–

# Continued, compound first:
SMILES,Ent. B Max Activity (%) (Table 9),"EC50 (Table 9, read-out: Ent. B EC50)",Ent. B Max Activity (%) (Table 10),EC50 [1],other results
COC(=O)N(C)[C@H]1C[C@]2(C1)C[C@H](N1C(=O)c3cccc(c3)S(=O)(=O)Nc3nc(cc(-c4c(C)cccc4C)n3)OC[C@H]1CC1(C(F)(F)F)CC1)C2 (stereo in doubt) [Compound 260],+++ (+++ is >60%),< 1000 nM,–,–,–
"Cc1cccc(C)c1-c1cc2nc(n1)NS(=O)(=O)c1cccc(c1)C(=O)N(C1CCN(C(=O)OC(C)C)C1)[C@H](CC(C)C)CO2 (single isomer, unassigned) [Compound 38]",–,–,–,–,Ent. B Max Activity (%): ++ (++ is 30-60%); EC50 (read-out: Ent. B EC50): < 1000 nM
[H][C@]1(N2C(=O)c3cccc(c3)S(=O)(=O)Nc3nc(cc(-c4c(C)cccc4C)n3)OC[C@H]2CC(C)C)C[C@@]2(C[C@H](N(C)C(=O)OC(C)C)C2)C1 (stereo partly shown) [Compound 284],++ (++ is 30-60%),< 1000 nM,–,–,–
Cc1cccc(C)c1-c1cc2nc(n1)NS(=O)(=O)c1cccc(c1)C(=O)N(c1cnn(C(C)C)c1)[C@H](CC(C)(C)C)CO2 [Compound 228],–,–,+++ (+++ is >60%),< 1000 nM,–
"Cc1cccc(C)c1-c1cc2nc(n1)NS(=O)(=O)c1cccc(c1)C(=O)N([C@H]1C[C@@H](NC(=O)OC(C)C)C1)[C@H](CC(C)C)CO2 (single isomer, unassigned) [Compound 64]",–,–,–,–,Ent. B Max Activity (%): +++ (+++ is >60%); EC50 (read-out: Ent. B EC50): < 1000 nM
"COCCN1CCC2(CC1)CC(N1C(=O)c3cccc(c3)S(=O)(=O)Nc3nc(cc(-c4c(C)cccc4C)n3)OC[C@H]1CC1(C(F)(F)F)CC1)C2 [Compound 128, (11R)-6-(2,6-Dimethylphenyl)-12-[7-(2-methoxyethyl)-7-azaspiro[3.5]nonan-2-yl]-2,2-dioxo-11-[[1-(trifluoromethyl)cyclopropyl]methyl]-9-oxa-2λ^6-thia-3,5,12,19-tetrazatricyclo[12.3.1.14,8]nonadeca-1(18),4(19),5,7,14,16-hexaen-13-one]",–,–,–,–,Ent. B Max Activity (%): +++ (+++ is >60%); EC50 (read-out: Ent. B EC50): < 1000 nM
"Cc1cccc(C)c1-c1cc2nc(n1)NS(=O)(=O)c1cccc(c1)C(=O)N(C1CC(NC(=O)OC(C)C)C1)[C@H](CC(C)(C)C(F)(F)F)CO2 (single isomer, unassigned) [Compound 192]",–,–,+++ (+++ is >60%),< 1000 nM,–
COC(=O)N1CCC(n2cc(N3C(=O)c4cccc(c4)S(=O)(=O)Nc4nc(cc(-c5c(C)cccc5C)n4)OC[C@H]3CC(C)(C)C)cn2)CC1 [Compound 223],–,–,+ (+ is <300%),< 1000 nM,–
Cc1cccc(C)c1-c1cc2nc(n1)NS(=O)(=O)c1cccc(c1)C(=O)N(C1CC3(CCN(CCOC4CC4)CC3)C1)[C@H](CC(C)C)CO2 [Compound 278],+++ (+++ is >60%),< 1000 nM,–,–,–
Cc1cccc(C)c1-c1cc2nc(n1)NS(=O)(=O)c1cccc(n1)C(=O)N([C@H]1C[C@@H](C(C)(C)O)C1)[C@H](CC(C)(C)C)CO2 (stereo in doubt) [Compound 411],–,–,+++ (+++ is >60%),< 1000 nM,–
COCCN(C)C1CC(N2C(=O)c3cccc(c3)S(=O)(=O)Nc3nc(cc(-c4c(C)cccc4C)n3)OC[C@H]2CC(C)C)C1 (stereo partly shown) [Compound 382],+++ (+++ is >60%),< 1000 nM,–,–,–
Cc1cccc(C)c1-c1cc2nc(n1)NS(=O)(=O)c1cccc(c1)C(=O)N([C@H]1C[C@@H](NC34CC(CO)(C3)C4)C1)[C@H](CC(C)C)CO2 (stereo in doubt) [Compound 358],–,–,+++ (+++ is >60%),< 1000 nM,–
Cc1ccc(F)c(C)c1-c1cc2nc(n1)NS(=O)(=O)c1cccc(c1)C(=O)N(C1CC3(CC3)C1)[C@H](CC(C)C)CO2 [Compound 424],+++ (+++ is >60%),< 1000 nM,–,–,–
"Cc1cccc(C)c1-c1cc2nc(n1)NS(=O)(=O)c1cccc(c1)C(=O)N([C@H]1C[C@@H](N(C)CCCO)C1)[C@H](CC(C)C)CO2 [Compound 67, (11R)-6-(2,6-Dimethylphenyl)-12-[3-[3-hydroxypropyl(methyl)amino]cyclobutyl]-11-isobutyl-2,2-dioxo-9-oxa-2λ^6-thia-3,5,12,19-tetrazatricyclo[12.3.1.14,8]nonadeca-1(18),4(19),5,7,14,16-hexaen-13-one]",+++ (+++ is >60%),< 1000 nM,–,–,–
